Source: patent US20100087516A1, “ANTIBACTERIAL MACROLACTIN A THAT BACILLUS POLYFERMENTICUS KJS-2 PRODUCED IN” (priority 2007, published 2010)
In brackets after ≈: the same amount, converted by molar mass. Where two headings read alike, the source gives them in different places.

Legend:
Bacillus subtilis 168 = experiment: Antibiotic activity test of HPLC fractions of the culture medium; type: cell-based
Procedure: (§1) In order to purify the antibiotic substance produced by strain Bacillus polyfermenticus KJS-2, the seed culture of the strain was diluted into 3 L of TSB medium (TSB agar: Tryptone 17 g, Soytone 3 g, Dextrose 2.5 g, NaCl 5 g, Dipotassium Phosphate 2.5 g, pH 6.8 to 72 to a final concentration of 4% and was cultured for 2.5 days (30° C., 200 rpm, 1 vvm, pH6.8). The culture medium was extracted with […] and analyzed by HPLC under the conditions using a solvent of Step 2 of Example 1, and each peak was fractionated as in FIG. 4. Each fraction was tested for antibiotic activity against Escherichia coli, Bacillus subtilis 168 and Vancomycin-resistant Enterococci. […] FIG. 5 below is the analysis of fraction 1 of FIG. 4 by LC/Mass under the same conditions of Step 2 of Example 1, and the purification was to a purity of 94.63%.

Escherichia coli = experiment: as above; type: cell-based
Procedure: as §1

[1] = test system: Vancomycin-resistant Enterococci; experiment: as above; type: cell-based
Procedure: as §1

[2] = test system: 11 VRE strains, clinically isolated; experiment: Minimal inhibitory concentration (MIC>90) in MH II medium; type: cell-based, vancomycin-resistant enterococci
Procedure: (§2) The MIC (minimal inhibitory concentration) against VRE and MRSA was measured to test antibiotic activity of Macrolactin A produced by Bacillus polyfermenticus KJS-2, which is the strain of the present invention, against the two strains. The strains used for the experiment were 11 VRE strains and 13 MRSA strains, which were clinically isolated. Each strain used for the experiment was cultured in MH II medium at 200 rpm for 6 hours at 37° C., the absorbance of the medium measured at OD600nm using a UV detector, and then 1 ml aliquot of the medium was spread over MH II agar medium and incubated for 16 hours at 37° C. The number of colonies formed on the agar medium after 16 hours of incubation was counted. Each strain used for experiment was cultured in MH II medium at 200 rpm for 6 hours at 37° C., and the absorbance of the medium was measured at OD600nm using a UV detector. The number of cells were calculated based on the ratio of the number of colonies to the absorbance of the medium, and measured by the above process. Each culture medium was diluted to the final cell concentration of 0.25*10^7 cfu/ml and Macrolactin A was dissolved in the solvent DMSO, while ampicillin, teycoplanin, vancomycin and methillin were dissolved in water. To measure the MIC of Macrolactin A or of the four antibiotics, the mixture of the materials listed in Table 5 and Macrolactin A or the mixture of the materials listed in Table 6 and each of the four antibiotics, respectively in a 500 μl eppendorff tub, was incubated at 200 rpm for 16 hours at 37° C., and then absorbance was measured by a UV/Visible Light detector at 600 nm using a Fluorescence Multi-Detection Reader.

[3] = test system: 13 MRSA strains, clinically isolated; experiment: as above; type: cell-based, methicillin-resistant Staphylococcus aureus
Procedure: as §2

Micrococcus luteus = experiment: Bioassay of Macrolactin A on TSB agar medium; type: cell-based; settings: 10 μl of solution in 50% acetone (2.5 mg/ml)
Procedure: (§3) The strains used for the experiment were Saccharomyces cerevisiae, Vibrio vulnificus, Micrococcus luteus and Streptococcus parauberis. Each strain, except Vibrio vulnificus, was inoculated and cultured in TSB medium at 200 rpm for 16 hours at 37° C., and then a 0.5 ml (approximately 28*10^9 cfu/ml) aliquot of the culture medium was spread over TSB agar medium. Vibrio vulnificus, was inoculated and cultured in TSB medium at 200 rpm for 16 hours at 25° C., which is its optimum growth conation, and then the amount of the culture medium was spread over the agar medium. The solvent required for the bioassay is a solvent, which can dissolve Macrolactin A, that has no toxicity against the strains used for the experiment.

Saccharomyces cerevisiae = experiment: Bioassay of Macrolactin A on TSB agar medium; type: cell-based; settings: 10 μl of solution in 50% acetone (2.5 mg/ml)
Procedure: as §3

Streptococcus parauberis = experiment: Bioassay of Macrolactin A on TSB agar medium; type: cell-based; settings: 10 μl of solution in 50% acetone (2.5 mg/ml)
Procedure: as §3

Vibrio vulnificus = experiment: Bioassay of Macrolactin A on TSB agar medium; type: cell-based; settings: 10 μl of solution in 50% acetone (2.5 mg/ml)
Procedure: as §3

VRE5 = experiment: Bioassay at a gradient of concentration on TSB agar medium; type: cell-based, vancomycin-resistant enterococci; settings: 10 μl of solution in 50% acetone
Heat and pH stability = type: physicochemical
[4] = test system: B16-F10 murine melanoma cancer cell; settings: cited from earlier work
Herpes simplex = settings: cited from earlier work
HIV = settings: cited from earlier work
[5] = test system: biosynthesis of cholesterol; settings: cited from earlier work
[6] = test system: methicillin-resistant Staphylococcus aureu (MRSA); settings: cited from earlier work
Burkholderia cepacia = settings: cited from earlier work

In the case of `CC1CCC/C=C/C=C/C(O)CC(O)C/C=C\C=C\C(O)C/C=C/C=C\C(=O)O1` (stereo not shown) [Macrolactin A], the “antibiotic activity against Bacillus subtilis 168” value (Bacillus subtilis 168) is reported as “excellent antibiotic activity”, the “antibiotic activity against Bacillus subtilis 168” value (Bacillus subtilis 168; listed as fraction 1) is reported as “had antibiotic activity” and the “antibiotic activity against Escherichia coli” value (Escherichia coli) is reported as “excellent antibiotic activity”. For the same molecule, the “antibiotic activity against Escherichia coli” value (Escherichia coli; listed as fraction 1) was “had antibiotic activity”, the “antibiotic activity against Vancomycin-resistant Enterococci” value [1] was “showed antibiotic activity” and the “activity relative to teycoplanin (average MIC>90)” value ([2]; 11 VRE strains) was 4 times. The “average MIC>90” value ([2]; Average of the 11 VRE strains) was 31.25 µg/mL, the “MIC>90” value ([2]; VRE1) was 31.25 µg/mL (≈ 77.6 µM) and the “MIC>90” value ([2]; VRE2) was 31.25 µg/mL (≈ 77.6 µM). For the same molecule, the “MIC>90” value ([2]; VRE3) was 31.25 µg/mL (≈ 77.6 µM), the “MIC>90” value ([2]; VRE4) was 31.25 µg/mL (≈ 77.6 µM) and the “MIC>90” value ([2]; VRE5) was 15.63 µg/mL (≈ 38.8 µM). The “MIC>90” value ([2]; VRE6) was 31.25 µg/mL (≈ 77.6 µM), the “MIC>90” value ([2]; VRE7) was 31.25 µg/mL (≈ 77.6 µM) and the “MIC>90” value ([2]; VRE9) was 31.25 µg/mL (≈ 77.6 µM). For the same molecule, the “MIC>90” value ([2]; VRE10) was 31.25 µg/mL (≈ 77.6 µM), the “MIC>90” value ([2]; VRE914) was 62.5 µg/mL (≈ 155 µM) and the “MIC>90” value ([2]; VRE915) was 15.63 µg/mL (≈ 38.8 µM). The “activity relative to teycoplanin (average MIC>90)” value ([3]; 13 MRSA strains) was 5.3 times, the “average MIC>90” value ([3]; Average of the 13 MRSA strains) was 19.83 µg/mL and the “MIC>90” value ([3]; MRSA1) was 31.25 µg/mL (≈ 77.6 µM). For the same molecule, the “MIC>90” value ([3]; MRSA2) was 15.63 µg/mL (≈ 38.8 µM), the “MIC>90” value ([3]; MRSA3) was 15.63 µg/mL (≈ 38.8 µM) and the “MIC>90” value ([3]; MRSA4) was 31.25 µg/mL (≈ 77.6 µM). The “MIC>90” value ([3]; MRSA5) was 31.25 µg/mL (≈ 77.6 µM), the “MIC>90” value ([3]; MRSA6) was 31.25 µg/mL (≈ 77.6 µM) and the “MIC>90” value ([3]; MRSA7) was 15.63 µg/mL (≈ 38.8 µM). For the same molecule, the “MIC>90” value ([3]; MRSA8) was 7.81 µg/mL (≈ 19.4 µM), the “MIC>90” value ([3]; MRSA8*) was 15.63 µg/mL (≈ 38.8 µM) and the “MIC>90” value ([3]; MRSA9) was 15.63 µg/mL (≈ 38.8 µM). For the same molecule, the “MIC>90” value ([3]; MRSA10) was 15.63 µg/mL (≈ 38.8 µM), the “MIC>90” value ([3]; MRSA11) was 15.63 µg/mL (≈ 38.8 µM) and the “MIC>90” value ([3]; MRSA11*) was 15.63 µg/mL (≈ 38.8 µM). For the same molecule, the “antibiotic activity against Micrococcus luteus” value (Micrococcus luteus) was “excellent antibiotic activity”, the “antibiotic activity against Saccharomyces cerevisiae” value (Saccharomyces cerevisiae) was “excellent antibiotic activity” and the “antibiotic activity against Streptococcus parauberis” value (Streptococcus parauberis) was “excellent antibiotic activity”. The “antibiotic activity against Vibrio vulnificus” value (Vibrio vulnificus) was “excellent antibiotic activity”, the “concentration of solution that inhibits VRE5 on TSB agar medium” value (VRE5) was “above 1.25 mg/ml” and the heat stability (Heat and pH stability) was “excellent heat stability”. For the same molecule, the “stability in weak acidic and neutral environments” value (Heat and pH stability; weak acidic and neutral environments) was “very stable”, the “cytotoxicity on the B16-F10 murine melanoma cancer cell” value [4] was “shows cytotoxicity” and the “antiviral activity against Herpes simplex” value (Herpes simplex) was “antiviral activity”. The “antiviral activity against HIV” value (HIV) was “antiviral activity”, the “inhibitory effect on the biosynthesis of cholesterol” value [5] was “inhibitory effect” and the “antibiotic activity against MRSA” value [6] was “antibiotic activity only against MRSA”. For the same molecule, the “antibiotic activity against Burkholderia cepacia” value (Burkholderia cepacia) was “antibiotic activity only against MRSA”.
